Test results reported in patent publication US6521647B2, “Treatment of renal disorders” (Pfizer Inc., priority 2000, dated 2003).

How the values were obtained:
[1] = tested on: cats with chronic renal failure; test: GFR from plasma clearance of iohexol in client-owned normotensive cats with spontaneous chronic renal failure (Experiment 2); type: in vivo, cat
Description: The data in the Table below were collected from client-owned, pet cats that had been diagnosed with spontaneous chronic renal failure (chronic renal insufficiency). These cats were presented by owners/clients to veterinary practices for evaluation of general health, kidney function, and systolic blood pressure.
Chronic renal failure is generally considered an irreversible and progressive disease in cats. […] Cats were considered normotensive as defined by systolic arterial blood pressure less than 160 mm Hg prior to the onset of treatment.
Renal function was assessed by determining glomerular filtration rate (GFR). GFR was estimated from plasma clearance of the exogenous marker, iohexol, approximately 7 days prior to the onset of treatment (day—7) and on approximately days 28, 56, 112, and 224 following onset of treatment.

[2] = tested on: normotensive nephrectomised cats with chronic renal failure; test: GFR in normotensive nephrectomised cats with chronic renal failure (Example 1); type: in vivo, cat; conditions: amlodipine besylate once daily at 0.125 mg/kg; after 35 days; no change in placebo group
Description: In this experiment, comparative groups of normotensive nephrectomised cats with chronic renal failure had their GFR measured. […] After 35 days the GFR was measured again. There was no change in the placebo group, but the GFR had increased by an average of ca. 28% for the amlodipine-treated group.

For CCOC(=O)C1=C(COCCN)NC(C)=C(C(=O)OC)C1c1ccccc1Cl (stereo not drawn) [Amlodipine, amlodipine besylate], the “GFR increase on average between day −7 and day 224” value ([1]; 0.125 to 0.25 mg/kg once daily oral, placebo declined 17%) was 9%, the “effect on decline in renal function (in words)” value ([1]; 0.125 to 0.25 mg/kg/day orally) was “prevents the decline in function associated with the progression of chronic renal failure in cats” and the “increase in GFR (average)” value [2] was “ca. 28%”.
